Test results from ChEMBL document CHEMBL5230154, “Chemical probe of AHL modulators on quorum sensing in Gram-Negative Bacteria and as antiproliferative agents: A review” (Eur J Med Chem, 2021).
Values belong to the compound of their own block, whether it stands above or below them.

Tests used:
Pseudomonas aeruginosa [1] = experiment: Inhibition of quorum sensing system in Pseudomonas aeruginosa MH602 PlasB-gfp(ASV) assessed as inhibition of green fluorescent protein production at 62.5 to 250 uM for 20 hrs by fluorescence assay; details: dose 62.5-250 µM
[2] = Agonist activity against RhlR in Escherichia coli expressing JLD271/pJN105R2/pSC11-rhlI using CPRG as substrate by spectrophotometric assay
[3] = molecular target: T1, Transcriptional activator protein LuxR (Vibrio fischeri (strain ATCC 700601 / ES114), UniProt P35327); experiment: Antagonist activity against LuxR mediated quorum sensing system in Vibrio fischeri ES114 expressing luxI assessed as decrease in luminescence intensity incubated for 4 to 8 hrs by bioluminescence analysis; set-up: species or system Aliivibrio fischeri
T1 sequence (P35327 whole entry): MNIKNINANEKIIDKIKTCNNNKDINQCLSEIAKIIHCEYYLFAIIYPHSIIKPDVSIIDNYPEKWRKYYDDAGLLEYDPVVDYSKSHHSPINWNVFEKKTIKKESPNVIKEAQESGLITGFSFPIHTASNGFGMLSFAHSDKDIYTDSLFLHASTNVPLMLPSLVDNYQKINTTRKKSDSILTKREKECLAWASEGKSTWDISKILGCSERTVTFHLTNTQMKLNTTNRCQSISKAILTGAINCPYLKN

[4] = molecular target: T2, Transcriptional activator protein LasR (Pseudomonas aeruginosa (strain ATCC 15692 / PAO1 / 1C / PRS 101 / LMG12228)) (UniProt P25084); experiment: Antagonist activity against LasR-mediated quorum sensing system in Pseudomonas aeruginosa PAO1 assessed as inhibition of pyocyanin production at 200 uM incubated for 13 hrs by spectrophotometric assay; details: filed as antagonist
T2 sequence (whole entry): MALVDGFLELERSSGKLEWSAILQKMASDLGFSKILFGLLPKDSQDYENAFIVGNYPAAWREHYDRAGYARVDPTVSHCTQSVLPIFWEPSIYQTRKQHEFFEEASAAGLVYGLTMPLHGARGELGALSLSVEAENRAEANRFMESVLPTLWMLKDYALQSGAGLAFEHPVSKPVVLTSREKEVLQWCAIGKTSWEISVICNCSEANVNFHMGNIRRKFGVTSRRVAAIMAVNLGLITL

Pseudomonas aeruginosa [5] = experiment: Inhibition of Pseudomonas aeruginosa MH602 harboring PlasB::gfp(ASV) reporter assessed as decrease in GFP expression at 250 uM incubated for 22 hrs by fluorescence microplate reader analysis
[6] = Inhibition of Escherichia coli DH5alpha LasR co-expressing LasR beta-galactosidase reporter assessed as inhibition of beta-galactosidase activity incubated for 2 hrs by spectrophotometric assay
Escherichia coli [7] = experiment: Inhibition of Escherichia coli DH5alpha LasR co-expressing LasR beta-galactosidase reporter assessed as inhibition of beta-galactosidase activity at 100 uM incubated for 2 hrs by spectrophotometric assay
Escherichia coli [8] = experiment: Antagonist activity against quorum sensing system in Pseudomonas aeruginosa PAO1 assessed as inhibition of 3OC6HSL- induced GFP expression at 50 uM by fluorescence analysis; details: filed as antagonist
Pseudomonas aeruginosa [9] = experiment: Inhibition of Pseudomonas aeruginosa MH602 harboring PlasB::gfp(ASV) reporter assessed as decrease in GFP expression at 125 uM incubated for 22 hrs by fluorescence microplate reader analysis
Pseudomonas aeruginosa [10] = experiment: Inhibition of quorum sensing system in Pseudomonas aeruginosa MH602 PlasB-gfp(ASV) assessed as inhibition of green fluorescent protein production at 62.5 uM for 20 hrs by fluorescence assay
Pseudomonas aeruginosa [11] = experiment: Inhibition of quorum sensing system in Pseudomonas aeruginosa MH602 PlasB-gfp(ASV) assessed as inhibition of green fluorescent protein production at 250 uM for 20 hrs by fluorescence assay
Pseudomonas aeruginosa [12] = experiment: Inhibition of quorum sensing system in Pseudomonas aeruginosa MH602 PlasB-gfp(ASV) assessed as inhibition of green fluorescent protein production at 125 uM for 20 hrs by fluorescence assay
[13] = Inhibition of quorum sensing system in Pseudomonas aeruginosa PAO1 assessed as inhibition of pyocyanin production at 250 uM incubated for 17 hrs by spectrophotometric analysis
[14] = Inhibition of quorum sensing system in Pseudomonas aeruginosa PAO1 assessed as inhibition of pyocyanin production at 32 uM incubated for 17 hrs by spectrophotometric analysis
Pseudomonas aeruginosa [15] = experiment: Inhibition of quorum sensing system in Pseudomonas aeruginosa MH602 expressing PlasB::gfp assessed as inhibition of GFP fluorescence expression at 250 uM incubated for 15 hrs by fluorescence microplate reader analysis
Pseudomonas aeruginosa [16] = experiment: Inhibition of biofilm formation in Pseudomonas aeruginosa PAO1 incubated for 12 hrs by crystal violet staining based analysis; assay type: functional
[17] = Inhibition of quorum sensing system in Pseudomonas aeruginosa PAO1 assessed as inhibition of rhamnolipid production at 15 uM incubated for 12 hrs by spectrophotometric assay
[18] = Inhibition of quorum sensing system in Pseudomonas aeruginosa PAO1 assessed as decrease in rhlR expression at 15 uM incubated for 12 hrs by real-time fluorescent quantitative PCR analysis
[19] = Inhibition of quorum sensing system in Pseudomonas aeruginosa PAO1 assessed as decrease in pqsR expression at 15 uM incubated for 12 hrs by real-time fluorescent quantitative PCR analysis
[20] = Inhibition of quorum sensing system in Pseudomonas aeruginosa PAO1 assessed as inhibition of elastase production at 15 uM incubated for 12 hrs by Congo red dye based spectrophotometric assay
[21] = Inhibition of quorum sensing system in Pseudomonas aeruginosa PAO1 assessed as inhibition of pyocyanin production at 15 uM incubated for 12 hrs by spectrophotometric assay
[22] = Inhibition of quorum sensing system in Pseudomonas aeruginosa PAO1 assessed as decrease in lasI expression at 15 uM incubated for 12 hrs by real-time fluorescent quantitative PCR analysis
[23] = Inhibition of quorum sensing system in Pseudomonas aeruginosa PAO1 assessed as decrease in lasA expression at 15 uM incubated for 12 hrs by real-time fluorescent quantitative PCR analysis

SMILES: CC(C)CCC(=O)N[C@H]1CCOC1=O
EC50 [2]: 4.89 µM

SMILES: CCCCCCCCCC(=O)CC(=O)Nc1ccc(OC)cc1
inhibition [4]: 73%

SMILES: CCC(C)CC(=O)N[C@H]1CCOC1=O (stereo partly specified)
EC50 [2]: 7.77 µM

SMILES: Cc1ccc2c(c1)C(=O)C(=O)N2C(=O)CCl
inhibition (Pseudomonas aeruginosa [5]): 57.4%

SMILES: CCCCCCCCCC(=O)CC(=O)Nc1cccc(OC)c1
inhibition [4]: 93%

SMILES: O=C1C(=O)N(C(=O)CCl)c2ccccc21
inhibition (Pseudomonas aeruginosa [5]): 60.1%
inhibition (Pseudomonas aeruginosa [9]): 34.7%

SMILES: CCCCCc1cn(CC(=O)Nc2nc3ccccc3[nH]2)nn1
inhibition (Pseudomonas aeruginosa [10]): 25%
inhibition (Pseudomonas aeruginosa [11]): 42%
inhibition (Pseudomonas aeruginosa [12]): 34%

SMILES: O=C1Cn2nncc2CNC(=O)C(=O)c2cc(F)ccc2NC(=O)Cn2nncc2CNC(=O)C(=O)c2cc(F)ccc2N1
inhibition (Pseudomonas aeruginosa [5]): 46%

SMILES: CCCCCCCc1cn(CC(=O)Nc2nc3ccccc3[nH]2)nn1
inhibition (Pseudomonas aeruginosa [10]): 25%
inhibition (Pseudomonas aeruginosa [11]): 42%
inhibition (Pseudomonas aeruginosa [12]): 34%

SMILES: C#CNC(=O)C(=O)c1cc(Br)ccc1NC(=O)CCl
inhibition (Pseudomonas aeruginosa [5]): 31.8%
inhibition (Pseudomonas aeruginosa [9]): 65%

SMILES: Cc1cc2nc(NC(=O)Cn3cc(-c4ccc(C(F)(F)F)cc4)nn3)[nH]c2cc1C
inhibition (Pseudomonas aeruginosa [1]): 36.1%

Second part, led by results:

inhibition (Pseudomonas aeruginosa [1]): 34%
SMILES: O=C(Cn1cc(-c2ccc(O)cc2)nn1)Nc1nc2ccccc2[nH]1

IC50 [3]: 0.6 µM
SMILES: O=C(Cc1ccc(Cl)cc1)N[C@H]1CCOC1=O

inhibition (Pseudomonas aeruginosa [1]): 49%
SMILES: O=C(Cn1cc(-c2ccc(F)cc2)nn1)Nc1nc2ccccc2[nH]1

IC50 [6]: 2.64 µM
inhibition (Escherichia coli [7]): 62%
SMILES: O=C(N[C@H]1CCOC1=O)c1ccc(-n2cc(CSc3ccccc3)nn2)cc1

inhibition (Escherichia coli [8]): 56.9%
SMILES: CCOC(=O)/C=C1\CC(NCc2ccco2)C(=O)N1Cc1ccco1 (stereo unspecified)

inhibition (Escherichia coli [8]): 47.9%
SMILES: CCOC(=O)/C=C1\CC(NCc2ccc(C)cc2)C(=O)N1Cc1ccc(C)cc1 (stereo unspecified)

inhibition (Pseudomonas aeruginosa [1]): 45.7%
SMILES: O=C(Cn1cc(-c2ccc(Br)cc2)nn1)Nc1nc2ccccc2[nH]1

inhibition (Escherichia coli [8]): 57.9%
SMILES: CCOC(=O)/C=C1\CC(NCc2ccccc2)C(=O)N1Cc1ccccc1 (stereo unspecified)

IC50 [6]: 17.6 µM
inhibition (Escherichia coli [7]): 75%
SMILES: CCCCc1cn(CC(=O)N[C@H]2CCOC2=O)nn1

inhibition [13]: 90%
inhibition [14]: 80%
inhibition (Pseudomonas aeruginosa [15]): 78%
SMILES: O=C1C(Cl)=C(Cl)CN1c1cccc(O)c1

inhibition [17]: 28.1%
inhibition [18]: 48.4%
inhibition [19]: 72.5%
inhibition [20]: 13.7%
inhibition [21]: 34.5%
inhibition [22]: 55.1%
inhibition [23]: 64.1%
SMILES: Cc1cccc(NC(=O)NC(=O)CSC(=S)N[C@H]2CCOC2=O)c1
inhibition (INH) (Pseudomonas aeruginosa [16]): 36.2%

inhibition [17]: 20.5%
inhibition [21]: 14.2%
inhibition [22]: 50.5%
SMILES: O=C(CSc1nc2ccccc2s1)N[C@H]1CCOC1=O
inhibition (INH) (Pseudomonas aeruginosa [16]): 28.6%

IC50 [6]: 16.3 µM
inhibition (Escherichia coli [7]): 70%
SMILES: O=C(Cn1cc(C2CCCC2)nn1)N[C@H]1CCOC1=O

inhibition (Pseudomonas aeruginosa [10]): 25%
inhibition (Pseudomonas aeruginosa [11]): 42%
inhibition (Pseudomonas aeruginosa [12]): 34%
SMILES: CCCc1cn(CC(=O)Nc2nc3ccccc3[nH]2)nn1

inhibition [17]: 17.6%
inhibition [19]: 53.5%
inhibition [21]: 27.5%
inhibition [22]: 47.9%
inhibition [23]: 58.5%
SMILES: O=C(CCSc1ccc(Cl)cc1)N[C@H]1CCOC1=O
inhibition (INH) (Pseudomonas aeruginosa [16]): 34.1%

IC50 [6]: 12.4 µM
inhibition (Escherichia coli [7]): 72%
SMILES: O=C(Cn1cc(C2CCCCC2)nn1)N[C@H]1CCOC1=O
